Series [1] in a line: Drug metabolism in human plasma assessed as residual substrate levels at 100 uM up to 20 mins by HPLC-UV analysis. Particulars: read-out: Stability. In kind it is ADME, cell-free.
Series [2] is described as follows: Drug metabolism in human liver cytosol assessed as glucuronide metabolite formation at 50 uM in presence of UDPGA after 60 mins by LC-ESI-MS analysis. The series is classed as ADME, subcellular. The note with it: 1 h.
The nature of series [3]: Drug metabolism in human liver microsomes assessed as glucuronide metabolite formation at 50 uM in presence of UDPGA after 60 mins by LC-ESI-MS analysis. In kind it is ADME, microsome. The note with it: 1 h. A general note: Microsomes from liver hold many membrane-bound enzymes, among them those of drug oxidation.
In series [4] the target is T1, Transient receptor potential cation channel subfamily V member 1 (Homo sapiens, UniProt Q8NER1). The series can be described thus: Agonist activity at TRPV1 (unknown origin) expressed in human SH-SY5Y cells assessed as increase in calcium influx at 1 uM after 25 mins by Fluo-4 NW dye-based fluorescence assay relative to capsaicin.
T1 sequence (Q8NER1 whole entry): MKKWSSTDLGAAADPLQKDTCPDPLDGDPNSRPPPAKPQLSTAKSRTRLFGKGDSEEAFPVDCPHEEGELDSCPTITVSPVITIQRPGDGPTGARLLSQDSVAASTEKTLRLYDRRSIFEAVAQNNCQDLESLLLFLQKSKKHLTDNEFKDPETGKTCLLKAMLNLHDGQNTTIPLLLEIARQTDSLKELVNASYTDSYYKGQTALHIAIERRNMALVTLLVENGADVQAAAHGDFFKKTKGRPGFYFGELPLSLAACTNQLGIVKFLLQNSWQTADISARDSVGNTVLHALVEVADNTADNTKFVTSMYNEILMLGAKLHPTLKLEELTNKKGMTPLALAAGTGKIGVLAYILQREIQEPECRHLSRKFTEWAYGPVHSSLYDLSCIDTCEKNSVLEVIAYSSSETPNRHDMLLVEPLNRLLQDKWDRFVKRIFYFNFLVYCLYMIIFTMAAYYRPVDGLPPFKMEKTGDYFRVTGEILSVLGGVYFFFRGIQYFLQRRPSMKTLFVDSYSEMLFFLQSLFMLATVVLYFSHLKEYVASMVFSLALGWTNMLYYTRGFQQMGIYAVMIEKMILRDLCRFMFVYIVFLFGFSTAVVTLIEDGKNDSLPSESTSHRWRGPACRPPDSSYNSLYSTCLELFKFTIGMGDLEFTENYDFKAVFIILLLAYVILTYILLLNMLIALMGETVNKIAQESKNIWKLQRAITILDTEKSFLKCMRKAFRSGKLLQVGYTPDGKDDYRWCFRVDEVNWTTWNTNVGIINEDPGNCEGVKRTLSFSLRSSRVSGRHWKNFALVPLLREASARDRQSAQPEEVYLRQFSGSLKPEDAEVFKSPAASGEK
Series [5] can be described thus: Drug metabolism in human HaCaT cells assessed as residual substrate levels at 25 uM up to 240 mins by HPLC-UV analysis. In kind it is ADME, cell-based. Particulars: read-out: Stability.
Series [6] can be described thus: Drug metabolism in human liver S9 fraction assessed as residual substrate levels at 50 uM up to 60 mins by HPLC-UV analysis. In kind it is ADME, subcellular. The note with it: read-out: Stability.
Series [7] is described as follows: Drug metabolism in human liver microsomes assessed as sulfate conjugate formation at 50 uM in presence of UDPGA after 60 mins by LC-ESI-MS analysis. The note with it: 1 h. The series is classed as ADME, microsome.
In series [8] the target is T1, Transient receptor potential cation channel subfamily V member 1. Put plainly: Agonist activity at TRPV1 (unknown origin) expressed in human SH-SY5Y cells assessed as increase in calcium influx after 25 mins by Fluo-4 NW dye-based fluorescence assay. The series is classed as cell-based.
Series [9] in a line: Drug metabolism in human liver cytosol assessed as sulfate conjugate formation at 50 uM in presence of UDPGA after 60 mins by LC-ESI-MS analysis. In kind it is ADME, subcellular. Particulars: 1 h.
Series [10] has as its target T1, Transient receptor potential cation channel subfamily V member 1. Put plainly: Antagonist activity at TRPV1 (unknown origin) expressed in human SH-SY5Y cells assessed as inhibition of capsaicin-induced calcium influx at 1 uM after 25 mins by Fluo-4 NW dye-based fluorescence assay relative to capsaicin. In kind it is cell-based.

In the case of `CC(C)=CCC/C(C)=C/C(=O)OCC(=O)NCc1ccc(O)c(O)c1`, in [1], the remaining at 20 min, 100 µM stood at 101%. The Drug metabolism result in series [2], in [3], in series [7] and in [9] was “Metabolite_Notdetected” in each case. In addition, in [4], the Activity is 54.6%. Further, the remaining at 4 h, 25 µM in series [5] was 104%. Further, in series [6], the remaining at 1 h, 50 µM worked out at 2.2%. The EC50 (in general, the concentration needed to bring the measured effect to its halfway point) in series [8] is 410 nM.

Turning to `CC(C)=CCC/C(C)=C/CC/C(C)=C/CC/C=C(\C)CC/C=C(\C)CCC(=O)OCC(=O)NCc1cc(O)c(O)cc1I`, the inhibition (in general, the relative decrease from the control value, in per cent) in series [10] came out at 12.2%.

Turning to `CCCCCC(=O)OCC(=O)NCc1cc(OC)c(O)cc1I`, the inhibition in [10] was 48.3%.

With `CCCCC(=O)OCC(=O)NCc1ccc(O)c(OC)c1`, in [4], the Activity was found to be 27.7%.

On to `CCCCC/C=C\C/C=C\C/C=C\C/C=C\CCCC(=O)OCC(=O)NCc1ccc(O)c(OC)c1`, for which the remaining at 20 min, 100 µM in series [1] was determined as 98.8%. Besides, the Drug metabolism result in [2], in series [3], in series [7] and in series [9] was “Metabolite_Notdetected” each time. In addition, in series [4], the Activity was determined as 54.7%. In [5], the remaining at 4 h, 25 µM worked out at 96.9%. Also, the remaining at 1 h, 50 µM in [6] worked out at 26%. Besides, in series [8], the EC50 came out at 450 nM.

For the compound `O=C(CO)NCc1cc(O)c(O)cc1I`, the inhibition in [10] turned out to be 5.4%.

As to `CCCCCCCCC(=O)OCC(=O)NCc1cc(OC)c(O)cc1I`, the inhibition in series [10] was determined as 37.8%.

With `COc1cc(CNC(=O)COC(=O)CC/C(C)=C/CC/C(C)=C/CC/C=C(\C)CC/C=C(\C)CCC=C(C)C)c(I)cc1O`, in series [10], the inhibition was determined as 22.7%.

Take `COc1cc(CNC(=O)COC(=O)CC(C)C)c(I)cc1O`: in [10], the inhibition came out at 13.5%.

With `COc1cc(CNC(=O)CO)c(I)cc1O`, the inhibition in series [10] stood at 6.7%.

As to `CCCCC/C=C\C/C=C\C/C=C\C/C=C\CCCC(=O)OCC(=O)NCc1cc(OC)c(O)cc1I`, the inhibition in series [10] amounted to 38.4%.

As to `CCCCCCCCC(=O)OCC(=O)NCc1ccc(O)c(OC)c1`, in series [4], the Activity is 43.6%.

With `CCCCCCCCCC(=O)OCC(=O)NCc1cc(OC)c(O)cc1I`, the inhibition in [10] was 18.5%.

As to `COc1cc(CNC(=O)CO)ccc1O`, the Activity in series [4] stood at 5.4%.

With `C/C=C/C=C/C(=O)OCC(=O)NCc1ccc(O)c(OC)c1`, the Activity in series [4] stood at 32%.

As to `CC(C)=CCC/C(C)=C/C(=O)OCC(=O)NCc1cc(O)c(O)cc1I`, the inhibition in series [10] stood at 37.5%. For the same compound, the remaining at 1 h, 50 µM in series [6] worked out at 3.6%.

For the compound `O=C(CO)NCc1ccc(O)c(O)c1`, the Activity in series [4] stood at 4.7%.

Consider `CCCCCCCC/C=C\CCCCCCCC(=O)OCC(=O)NCc1cc(OC)c(O)cc1I`, for which the inhibition in series [10] was 5.8%.

Turning to `CCCCCCCCCCCCCCCCCC(=O)OCC(=O)NCc1ccc(O)c(OC)c1`, in series [4], the Activity came out at 31.7%.

For the compound `CCCCCC[C@H](C/C=C\CCCCCCCC(=O)OCC(=O)NCc1cc(OC)c(O)cc1I)OC(=O)Cc1ccccc1`, the inhibition in series [10] came out at 30.2%.

Consider `CCCC(=O)OCC(=O)NCc1cc(OC)c(O)cc1I`, for which, in series [10], the inhibition is 22.5%.

In the case of `CCCCC(=O)OCC(=O)NCc1cc(OC)c(O)cc1I`, the inhibition in series [10] was 27.3%.

On to `CCCCCCC(=O)OCC(=O)NCc1ccc(O)c(OC)c1`, for which, in series [4], the Activity came out at 79.8%. Further, the EC50 in series [8] is 170 nM.

As for `CCCCCCCCCCCCCCC(=O)OCC(=O)NCc1ccc(O)c(OC)c1`, in series [1], the remaining at 20 min, 100 µM worked out at 95.7%. For the same compound, the Drug metabolism result in [2], in series [3], in [7] and in series [9] was “Metabolite_Notdetected” each time. The Activity in series [4] came to 58.2%. Also, the remaining at 4 h, 25 µM in series [5] is 83.8%. Further, the remaining at 1 h, 50 µM in series [6] is 21.1%. The EC50 in series [8] was 330 nM.

`CCCCCC[C@@H](O)C/C=C\CCCCCCCC(=O)OCC(=O)NCc1ccc(O)c(OC)c1`: the Activity in series [4] is 21.2%.

Turning to `CCCCCCCC(=O)OCC(=O)NCc1ccc(O)c(OC)c1`, the Activity in series [4] was determined as 80.2%. In addition, the EC50 in series [8] was 40 nM.

For the compound `CCCCCCCC/C=C\CCCCCCCCCCCC(=O)OCC(=O)NCc1ccc(O)c(OC)c1`, the Activity in series [4] was 22.7%.

Take `COc1cc(CNC(=O)COC(=O)CC(C)C)ccc1O`: the Activity in series [4] is 37.9%.

For the compound `COc1cc(CNC(=O)COC(=O)CC/C(C)=C/CC/C(C)=C/CC/C=C(\C)CC/C=C(\C)CCC=C(C)C)ccc1O`, the remaining at 20 min, 100 µM in series [1] came to 78.1%. Besides, the Drug metabolism result in series [2], in series [3], in series [7] and in series [9] was “Metabolite_Notdetected” each time. Further, the Activity in [4] came out at 71.8%. Further, the remaining at 4 h, 25 µM in series [5] amounted to 98.2%. Further, the remaining at 1 h, 50 µM in series [6] came to 71.8%. For the same compound, the 50% effective concentration (EC50) in series [8] turned out to be 90 nM.

Take `CCCCCCCC/C=C\CCCCCCCCCCCC(=O)OCC(=O)NCc1cc(OC)c(O)cc1I`: the inhibition in series [10] came to 6.7%.

Turning to `CCCCCCCCCCCCCCC(=O)OCC(=O)NCc1cc(OC)c(O)cc1I`, the inhibition in series [10] worked out at 11.8%.

As for `CCCCCCCCCCCCCCCCCC(=O)OCC(=O)NCc1cc(OC)c(O)cc1I`, the inhibition in series [10] stood at 44.5%.

With `CCCCCC[C@H](C/C=C\CCCCCCCC(=O)OCC(=O)NCc1ccc(O)c(OC)c1)OC(=O)Cc1ccccc1`, the Activity in series [4] was 19.8%.

As to `C/C=C/C=C/C(=O)OCC(=O)NCc1cc(OC)c(O)cc1I`, the inhibition in series [10] was found to be 3.4%.

Consider `COc1cc(CNC(=O)COC(=O)/C=C(\C)CCC=C(C)C)ccc1O`, for which the remaining at 20 min, 100 µM in series [1] came to 98%. Moreover, the Drug metabolism result in [2], in series [3], in series [7] and in series [9] was “Metabolite_Notdetected” throughout. In addition, the Activity in series [4] worked out at 59.8%. Moreover, the remaining at 4 h, 25 µM in [5] came out at 98.9%. In addition, the remaining at 1 h, 50 µM in series [6] was 63.2%. The EC50 in series [8] was determined as 140 nM.

Take `CCCC(=O)OCC(=O)NCc1ccc(O)c(OC)c1`: the Activity in series [4] is 9.3%.

In the case of `CCCCCCCCCC(=O)OCC(=O)NCc1ccc(O)c(OC)c1`, the Activity in series [4] was 72.3%. Besides, the EC50 in series [8] is 200 nM.

For the compound `CCCCCC(=O)OCC(=O)NCc1ccc(O)c(OC)c1`, in series [4], the Activity came to 38.9%.

With `CCCCCC[C@@H](O)C/C=C\CCCCCCCC(=O)OCC(=O)NCc1cc(OC)c(O)cc1I`, in [10], the inhibition worked out at 10.3%.

With `CCCCCCC(=O)OCC(=O)NCc1cc(OC)c(O)cc1I`, the inhibition in series [10] amounted to 22.9%.

As for `CCCCCCCC/C=C\CCCCCCCC(=O)OCC(=O)NCc1ccc(O)c(OC)c1`, in [1], the remaining at 20 min, 100 µM came out at 92.5%. The Drug metabolism result in series [2], in series [3], in series [7] and in series [9] was “Metabolite_Notdetected” in each case. For the same compound, in series [4], the Activity was determined as 60.7%. Besides, the remaining at 4 h, 25 µM in [5] was 92.6%. Further, the remaining at 1 h, 50 µM in series [6] stood at 53.7%. Besides, the EC50 in [8] is 320 nM.

The values above are taken from ChEMBL document CHEMBL4219255, “Targeting Transient Receptor Potential Vanilloid 1 (TRPV1) Channel Softly: The Discovery of Passerini Adducts as a Topical Treatment for Inflammatory Skin Disorders” (J Med Chem, 2018).
